This note sets out measurements from US20250262201A1, “COMPOUNDS AND METHODS USEFUL FOR STABILIZING PHENYLALANINE HYDROXYLASE MUTATIONS” (Agios Pharmaceuticals, Inc., priority 2022, published 2025).

The assay addresses T1, human PAH with the R408W mutation (Homo sapiens, UniProt P00439, R408W).
T1 construct: expressed in transfected cells
T1 sequence (P00439 1-452 R408W): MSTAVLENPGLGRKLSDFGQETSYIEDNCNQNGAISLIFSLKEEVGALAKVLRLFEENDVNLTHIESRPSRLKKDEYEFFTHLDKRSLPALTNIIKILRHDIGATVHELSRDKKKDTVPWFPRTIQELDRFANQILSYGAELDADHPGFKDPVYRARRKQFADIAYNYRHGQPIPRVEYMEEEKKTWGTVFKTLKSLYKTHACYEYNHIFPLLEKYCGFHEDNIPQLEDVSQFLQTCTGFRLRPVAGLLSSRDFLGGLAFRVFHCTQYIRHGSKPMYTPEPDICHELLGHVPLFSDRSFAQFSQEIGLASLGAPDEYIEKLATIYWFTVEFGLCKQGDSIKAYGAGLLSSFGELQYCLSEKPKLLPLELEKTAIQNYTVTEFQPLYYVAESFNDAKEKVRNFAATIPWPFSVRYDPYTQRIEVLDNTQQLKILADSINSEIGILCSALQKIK
Description: Cell Based Phenylalanine Flux Assay. The following applies: A375 cells expressing human R408W PAH; 24 hrs compound incubation; 13C-Tyrosine by LC-MS; average where tested multiple times; read-out: AC50.
Turning to `COc1ccc(-c2nnc(C(=O)N3CCc4[nH]cnc4[C@@H]3c3ncc4ccccc4n3)o2)nc1` [Example 182, (R)-(5-(5-methoxypyridin-2-yl)-1,3,4-oxadiazol-2-yl)(4-(quinazolin-2-yl)-6,7-dihydro-1H-imidazo[4,5-c]pyridin-5(4H)-yl)methanone], the AC50 was in the range of 1 to 5 µM.

Regarding `Cn1ncnc1C(=O)N1CCc2[nH]cnc2[C@@H]1c1ncc2ccccc2n1` [Example 183, (R)-(1-methyl-1H-1,2,4-triazol-5-yl)(4-(quinazolin-2-yl)-6,7-dihydro-1H-imidazo[4,5-c]pyridin-5(4H)-yl)methanone], the AC50 was 1 to 5 µM.

As for `Cn1ncnc1C(=O)N1CCc2[nH]cnc2[C@H]1c1ncc2ccccc2n1` [Example 184, (S)-(1-methyl-1H-1,2,4-triazol-5-yl)(4-(quinazolin-2-yl)-6,7-dihydro-1H-imidazo[4,5-c]pyridin-5(4H)-yl)methanone], the AC50 is under 0.5 µM.

In the case of `O=C(c1nnc(-c2cnn(C(F)F)c2)o1)N1CCc2[nH]cnc2[C@H]1c1ncc2ccccc2n1` [Example 185, (S)-(5-(1-(difluoromethyl)-1H-pyrazol-4-yl)-1,3,4-oxadiazol-2-yl)(4-(quinazolin-2-yl)-6,7-dihydro-1H-imidazo[4,5-c]pyridin-5(4H)-yl)methanone], the AC50 is under 0.5 µM.

For the compound `O=C(c1nnc(-c2cnn(C(F)F)c2)o1)N1CCc2[nH]cnc2[C@@H]1c1ncc2ccccc2n1` [Example 186, (R)-(5-(1-(difluoromethyl)-1H-pyrazol-4-yl)-1,3,4-oxadiazol-2-yl)(4-(quinazolin-2-yl)-6,7-dihydro-1H-imidazo[4,5-c]pyridin-5(4H)-yl)methanone], the AC50 was over 5 µM.

`O=C(c1nnc(-c2cnn(C3CCC3)c2)o1)N1CCc2[nH]cnc2[C@H]1c1ncc2ccccc2n1` [Example 187, (S)-(5-(1-cyclobutyl-1H-pyrazol-4-yl)-1,3,4-oxadiazol-2-yl)(4-(quinazolin-2-yl)-6,7-dihydro-1H-imidazo[4,5-c]pyridin-5(4H)-yl)methanone]: the AC50 is under 0.5 µM.

On to `O=C(c1nnc(-c2cnn(C3CCC3)c2)o1)N1CCc2[nH]cnc2[C@@H]1c1ncc2ccccc2n1` [Example 188, (R)-(5-(1-cyclobutyl-1H-pyrazol-4-yl)-1,3,4-oxadiazol-2-yl)(4-(quinazolin-2-yl)-6,7-dihydro-1H-imidazo[4,5-c]pyridin-5(4H)-yl)methanone], for which the AC50 lay within 1 to 5 µM.

In the case of `O=C(c1nnc(-c2ccn(C(F)F)n2)o1)N1CCc2[nH]cnc2[C@H]1c1ncc2ccccc2n1` [Example 189, (S)-(5-(1-(difluoromethyl)-1H-pyrazol-3-yl)-1,3,4-oxadiazol-2-yl)(4-(quinazolin-2-yl)-6,7-dihydro-1H-imidazo[4,5-c]pyridin-5(4H)-yl)methanone], the AC50 was under 0.5 µM.

With `O=C(c1nnc(-c2ccn(C(F)F)n2)o1)N1CCc2[nH]cnc2[C@@H]1c1ncc2ccccc2n1` [Example 190, (R)-(5-(1-(difluoromethyl)-1H-pyrazol-3-yl)-1,3,4-oxadiazol-2-yl)(4-(quinazolin-2-yl)-6,7-dihydro-1H-imidazo[4,5-c]pyridin-5(4H)-yl)methanone], the AC50 lay within 1 to 5 µM.

With `O=C(c1nnc(-c2cnccn2)o1)N1CCc2[nH]cnc2[C@@H]1c1ncc2ccccc2n1` [Example 191, (R)-(5-(pyrazin-2-yl)-1,3,4-oxadiazol-2-yl)(4-(quinazolin-2-yl)-6,7-dihydro-1H-imidazo[4,5-c]pyridin-5(4H)-yl)methanone], the AC50 is over 5 µM.

For `O=C(c1nnc(-c2cnccn2)o1)N1CCc2[nH]cnc2[C@H]1c1ncc2ccccc2n1` [Example 192, (S)-(5-(pyrazin-2-yl)-1,3,4-oxadiazol-2-yl)(4-(quinazolin-2-yl)-6,7-dihydro-1H-imidazo[4,5-c]pyridin-5(4H)-yl)methanone], the AC50 was in the range of 0.5 to 1 µM.

The term AC50 denotes the concentration at which the activity in the assay is half-maximal.
